One assay deals with IL23-p19. Nature of the assay: Compound screening using DC cells: LPS-induced IL-23 (p19/p40) ELISA in IFNγ-primed dendritic cells differentiated from human PBMC. Format: cell-based. The conditions noted are these: Dendritic cell, human PBMC-derived dendritic cells, LPS 1 μg/ml, 18 hours, 10 pt. On the procedure:
Compound Screening Using DC Cells
Human PBMC cells (400 million) obtained from the vendor were transferred into a T-175 flask containing 15 ml RPMI media (10% FBS) and incubate for 2 hours at 37° C. After 2 hours, the media including floating cells was aspirated out carefully and 12 ml of fresh RPMI media (10% FBS) containing GMCSF (100 ng/ml) and IL4 (20 ng/ml) was added, and the flask was kept in a 37° C. incubator for 7 days.
After 3 days, fresh GMCSF (100 ng/ml) and IL4 (20 ng/ml) were added to the flask and the incubation continued. After 7 days, the fully differentiated cells were harvested by spinning down (1200 rpm/5 min) and aspirating the media. The cells were suspended in fresh RPMI media (10% FBS) containing 50 ng/ml IFNγ (1000 U/ml) and then plated (50K/well in 100 μl) onto a white clear bottom 96 well plate and left in a 37° C. incubator for 24 hours.
After 24 hours incubation, 100 μl of RPMI media was added containing 2× concentrated test compound per well to the above cell-culture media (final concentration becomes 1×) and the plates were pre-incubated for 1 hour at 37° C. before stimulating with LPS.
After 1 hour compound pre-incubation, 10 μl per well of 20× concentrated LPS solution in RPMI media was added to give a final concentration of 1 μg/ml. The mixture was shaken and incubated the plates at 37° C. for an additional 18 hours.
155 μl of the supernatant was harvested from each well carefully (without the tip touching the bottom of the well) and to the remaining 50 μl/well of the cell culture plate was added 50 μl of Cell Titer Glo reagent. The mixture was incubated for 1-2 minutes on a shaker and the plate was read for luminescence intensity to determine the compound cytotoxicity. The cell culture supernatant collected above was used to carry out IL23 ELISA (65 μl—Supernatant) and IL10 ELISA (90 μl—Supernatant) as described below.
Human IL-23 (p19/p40) ELISA Protocol (e-Biosciences)
To 10.5 ml PBS add 50 μl of anti-IL23 (p19) was added capture antibody (2.5 μg/ml). The mixture was mixed well and 100 μl of the coating solution was added to each well of the 96 well white plates from Pierce. The wells were covered and incubated overnight at 4° C.
The anti-IL23 (p19)-antibody-coated plates were washed 2× using TBST (use plate washer) and blocked using 200 μl of 0.5% Casein for 1.5-2 hours at room temperature with shaking.
The plates were washed 2× using TBST and the supernatant was transferred (65 μl/well) to the above pre-blocked/IL23(p19)-antibody-coated 96 well plate, and incubated at room temperature for 1.5 hours with shaking.
The plates were washed 4× using TBST (plate washer) and 100 μl/well detection antibody solution prepared from 2 μl of biotin labeled anti-IL-12 (p40/p70) antibody in 11 ml 1% BSA/PBS solution (I-5000 dilution) was added. The plates were incubated for 1 hour with shaking at Room temperature.
Again, the plates were washed 4× with TBST and 100 μl of HRP labeled Streptavidin (R&D Systems) solution (10 μl/10 ml 1% BSA solution) was added, and the plates were incubated at room temperature for another 45 minutes with shaking.
After 45 minutes, the plates were washed with TBST 4× and 100 ul/well Super Signal ELISA Pico Chemiluminescent Substrate from Pierce (3.5 ml A+3.5 ml B+3.5 ml MQ water) was added. The plates were shaken for 1-2 minutes then read on a plate reader.
On the technique in general: An ELISA detects its analyte on a solid surface through an enzyme-linked reagent.

In another assay the test system is IL23p19. Briefly: LPS Induced IL23p19 in THP-1 Cells (with IFNγ Primed) Assay. The class given is cell-based. The conditions noted are these: Homo sapiens, IFNγ primed (50 ng/mL), LPS 1 ug/mL, 18 hours, 10 pt, read-out: IL23-p19 ELISA, THP1-IFNy, LPS, 10 pt EC50. An excerpt:
LPS Induced IL23p19 in THP-1 Cells (with IFNγ Primed) Assay
THP-1 Cells (ATCC, Cat # TIB-202), Dimethyl Sulfoxide (DMSO) (Sigma-Aldrich, Cat # D2650), RPMI 1640 (Cellgro, Cat #10-040-CM), Fetal Bovine Serum (Sigma, Cat # F4135), Albumin From Bovine Serum (BSA) (Sigma-Aldrich, Cat # A7906), LPS (Serotype K-235, Sigma, Product Number L 2143), IFNγ (Peprotech, Cat #300-02)
Capture antibody: Human IL-23p19 ELISA (e-Bioscience, Cat. #14-7238-85),
Detection antibody: Primary Mouse Biotinylated anti-human IL-12(p40/p70) (e-Bioscience, Cat. #13-7129-85), Secondary HRP-conjugated Streptavidin (R&D Systems, Cat # DY998), 1×PBST Washing Buffer (PBS-Tween tablet) (VWR International, Cat #80058-558), ELISA Blocking Buffer (PBS with 1% BSA), ELISA Dilution Buffer (PBS with 1% BSA), 384 Well Flat-Bottom, MaxiSorp Black Immuno Plates (Thermo Scientific, Cat #12-565-346), 384 Well Flat-Bottom, White Tissue Culture Plates (Thermo Scientific, Cat #12-565-343), Super Signal ELISA Pico Chemiluminescent Substrate (Thermo Scientific, Cat #37070), Cell Titer Glo reagent (Promega, Cat # G7573), Positive control, IKK2VI inhibitor (Calbiochem, Cat #401483), AquaMax 4000 plate washer (Molecular Devices), Luminometer, Wallac Victor2 1420 Multilabel Counter. Method THP-1 Cells Stimulation:
On day 1, 50K/well THP-1 cells were seeded and primed with IFNγ (50 ng/mL) in 384-well plates for about 18 hours in RPMI media with 10% FBS. On day 2, the compound was serially diluted in DMSO from 5 mM in 3-fold dilutions, and then diluted 1:125 in RPMI media with 10% FBS. 50 μL/well 2× compound was added to 50 μL/well THP-1 cells (with IFNγ primed) in duplicate in 384 well tissue culture plates. The cells were pre-incubated with compound for 1 hour at 37° C., 5% CO2 before addition of 10 μL/well 11×LPS to give a final concentration of 1 ug/mL LPS. Day 3, after stimulation for 18 hours at 37° C., 5% CO2, the assay plate was centrifuged and 70 μL/well supernatant was harvested. IL-23p19 protein in 70 μL/well of supernatant was measured by sandwich ELISA, and 25 μl/well Cell Titer Glo reagent was added to the remaining cells to measure compound toxicity.
Human IL-23p19 Sandwich ELISA:
Maxisorp immuno ELISA plates were pre-coated with 25 μL/well of anti-IL-23p19 capture antibody (2.5 ug/mL) in PBS overnight at room temperature. After washing with 1×PBST, the plates were blocked using 100 μL/well of 1% BSA in PBS for 2 hours at room temperature. The plates were washed three times with 1×PBST and 70 μL/well supernatant were added. The plates were incubated at room temperature for 2 hours with shaking and washed three times with 1×PBST. 25 μL/well of biotin labeled anti-IL-12(p40/p70) detection antibody (100 ng/mL) in PBS with 1% BSA was added and the plates were incubated at room temperature for 2 hours with shaking. After washing three times with 1×PBST, 25 μL/well of streptavidin-HRP (1:200) in PBS with 1% BSA was added and the plates were incubated at room temperature for 20 minutes with shaking. The plates were washed three times with 1×PBST and 25 μL/well of Super Signal ELISA Pico Chemiluminescent Substrate were added. The plates were read with a luminometer, and the chemiluminescence values were entered into Athena (Rigel) for curve fitting, EC50 calculation, and database storage.

Each structure is given as a SMILES string. pEC50: −log10 of the molar value.

The text below walks through data of US10774076B2, “Benzazole compounds and methods for making and using the compounds” (Rigel Pharmaceuticals, Inc., priority 2015, dated 2020).

What is called pEC50 is −log10 of the EC50, conventionally taken in molar units.

For `O=C(Nc1cc2oc(N3CCOCC3)nc2cc1N1CCOCC1)c1ccc(-c2cn[nH]c2)o1` [Compound I-48, N-(2,5-dimorpholinobenzo[d]oxazol-6-yl)-5-(1H-pyrazol-4-yl)furan-2-carboxamide], the pEC50 is 6.91 with IL23-p19 and 7.23 with IL23p19.
In the same order, the values of `O=C(Nc1cc2oc(N3CCOCC3)nc2cc1N1CCCC1)c1csc(-c2cn[nH]c2)n1` [Compound I-47, N-(2-morpholino-5-(pyrrolidin-1-yl)benzo[d]oxazol-6-yl)-2-(1H-pyrazol-4-yl)thiazole-4-carboxamide] are 7.24 and 7.67.
Regarding `Cc1cc(-c2nc(C(=O)Nc3cc4oc(N5CCOCC5)nc4cc3N3CCC(F)(F)CC3)cs2)ccn1` [Compound I-30, N-(5-(4,4-difluoropiperidin-1-yl)-2-morpholinobenzo[d]oxazol-6-yl)-2-(2-methylpyridin-4-yl)thiazole-4-carboxamide], the pEC50 in the assay with IL23p19 was 4.36.
For the compound `O=C(Nc1cc2sc(N3CCOCC3)nc2cc1N1CCCCC1)c1ccc(-c2cnc3[nH]ccc3c2)o1` [Compound I-6, N-(2-morpholino-5-(piperidin-1-yl)benzo[d]thiazol-6-yl)-5-(1H-pyrrolo[2,3-b]pyridin-5-yl)furan-2-carboxamide], the pEC50 was 4.85 with IL23-p19 and 4.39 in the assay on IL23p19.
`Nc1ccc(-c2ccc(C(=O)Nc3cc4sc(N5CCOCC5)nc4cc3N3CCCCC3)o2)cn1` [Compound I-5, 5-(6-aminopyridin-3-yl)-N-(2-morpholino-5-(piperidin-1-yl)benzo[d]thiazol-6-yl)furan-2-carboxamide]: the pEC50 is 6.59 in the assay on IL23-p19 and 6.36 in the assay on IL23p19.
In the same order, the values of `O=C(Nc1cc2oc(N3CCOCC3)nc2cc1N1CCCCC1)c1csc(-c2cn[nH]c2)n1` [Compound I-12, N-(2-morpholino-5-(piperidin-1-yl)benzo[d]oxazol-6-yl)-2-(1H-pyrazol-4-yl)thiazole-4-carboxamide] are 7.70 and 7.27.
Taken in the same sequence, the figures for `O=C(Nc1cc2oc(N3CCOCC3)nc2cc1N1CCC(F)CC1)c1csc(-c2cn[nH]c2)n1` [Compound I-25, N-(5-(4-fluoropiperidin-1-yl)-2-morpholinobenzo[d]oxazol-6-yl)-2-(1H-pyrazol-4-yl)thiazole-4-carboxamide] were 6.92 and 7.32.
Regarding `Cc1cc(-c2ccc(C(=O)Nc3cc4oc(N5CCOCC5)nc4cc3N3CCCCC3)o2)ccn1` [Compound I-10, 5-(2-methylpyridin-4-yl)-N-(2-morpholino-5-(piperidin-1-yl)benzo[d]oxazol-6-yl)furan-2-carboxamide], the pEC50 was 5.52 with IL23-p19 and 5.33 with IL23p19.
Turning to `Nc1ccc(-c2nc(C(=O)Nc3cc4oc(N5CCOCC5)nc4cc3N3CCCCC3)cs2)cn1` [Compound I-11, 2-(6-aminopyridin-3-yl)-N-(2-morpholino-5-(piperidin-1-yl)benzo[d]oxazol-6-yl)thiazole-4-carboxamide], in the assay on IL23p19, the pEC50 was 3.64.
Still for that read-out and setting: as for `Cc1cc(-c2nc(C(=O)Nc3cc4oc(N5CCCCC5)nc4cc3N3CCCCC3)cs2)ccn1` [Compound I-37, N-(2,5-di(piperidin-1-yl)benzo[d]oxazol-6-yl)-2-(2-methylpyridin-4-yl)thiazole-4-carboxamide], the figure is 4.64; as for `O=C(Nc1cc2oc(N3CCOCC3)nc2cc1N1CCCCC1)c1csc(-c2cc[nH]n2)n1` [Compound I-13, N-(2-morpholino-5-(piperidin-1-yl)benzo[d]oxazol-6-yl)-2-(1H-pyrazol-3-yl)thiazole-4-carboxamide], 5.53.
Take `Cc1cc(-c2nc(C(=O)Nc3cc4oc(N5CCOCC5)nc4cc3N3CCC(F)CC3)cs2)ccn1` [Compound I-26, N-(5-(4-fluoropiperidin-1-yl)-2-morpholinobenzo[d]oxazol-6-yl)-2-(2-methylpyridin-4-yl)thiazole-4-carboxamide]: in the assay with IL23p19, the pEC50 is 5.93.
The same measure, in the same setting: the same measure for `Cc1cc(-c2ccc(C(=O)Nc3cc4oc(N5CCCCC5)nc4cc3N3CCCCC3)o2)ccn1` [Compound I-33, N-(2,5-di(piperidin-1-yl)benzo[d]oxazol-6-yl)-5-(2-methylpyridin-4-yl)furan-2-carboxamide]: 2.35; for `O=C(Nc1cc2sc(N3CCOCC3)nc2cc1N1CCCCC1)c1ccc(-c2cc[nH]n2)o1` [Compound I-8, N-(2-morpholino-5-(piperidin-1-yl)benzo[d]thiazol-6-yl)-5-(1H-pyrazol-3-yl)furan-2-carboxamide]: 6.21; for `O=C(Nc1cc2oc(N3CCCCC3)nc2cc1N1CCCCC1)c1csc(-c2cc[nH]n2)n1` [Compound I-36, N-(2,5-di(piperidin-1-yl)benzo[d]oxazol-6-yl)-2-(1H-pyrazol-3-yl)thiazole-4-carboxamide]: 5.28.
`Nc1ccc(-c2nc(C(=O)Nc3cc4oc(N5CCCCC5)nc4cc3N3CCCCC3)cs2)cn1` [Compound I-34, 2-(6-aminopyridin-3-yl)-N-(2,5-di(piperidin-1-yl)benzo[d]oxazol-6-yl)thiazole-4-carboxamide]: in the assay on IL23p19, the pEC50 was 5.08.
